Structures can show the parent of a compound that is named as a salt. Where two headings read alike, the source gives them in different places.
Legend:
IP-3 receptor = biological target: T1, IP-3 receptor (Rattus norvegicus, UniProt P29994); test: IP-3 receptor antagonistic effect: inhibition of IP3 binding to its receptor in rat cerebellum membrane preparations
T1 construct: determined using rat cerebellum membrane preparations; from tissue; host or cells: rat cerebellum (microsomal membrane preparation)
T1 sequence (P29994 whole entry): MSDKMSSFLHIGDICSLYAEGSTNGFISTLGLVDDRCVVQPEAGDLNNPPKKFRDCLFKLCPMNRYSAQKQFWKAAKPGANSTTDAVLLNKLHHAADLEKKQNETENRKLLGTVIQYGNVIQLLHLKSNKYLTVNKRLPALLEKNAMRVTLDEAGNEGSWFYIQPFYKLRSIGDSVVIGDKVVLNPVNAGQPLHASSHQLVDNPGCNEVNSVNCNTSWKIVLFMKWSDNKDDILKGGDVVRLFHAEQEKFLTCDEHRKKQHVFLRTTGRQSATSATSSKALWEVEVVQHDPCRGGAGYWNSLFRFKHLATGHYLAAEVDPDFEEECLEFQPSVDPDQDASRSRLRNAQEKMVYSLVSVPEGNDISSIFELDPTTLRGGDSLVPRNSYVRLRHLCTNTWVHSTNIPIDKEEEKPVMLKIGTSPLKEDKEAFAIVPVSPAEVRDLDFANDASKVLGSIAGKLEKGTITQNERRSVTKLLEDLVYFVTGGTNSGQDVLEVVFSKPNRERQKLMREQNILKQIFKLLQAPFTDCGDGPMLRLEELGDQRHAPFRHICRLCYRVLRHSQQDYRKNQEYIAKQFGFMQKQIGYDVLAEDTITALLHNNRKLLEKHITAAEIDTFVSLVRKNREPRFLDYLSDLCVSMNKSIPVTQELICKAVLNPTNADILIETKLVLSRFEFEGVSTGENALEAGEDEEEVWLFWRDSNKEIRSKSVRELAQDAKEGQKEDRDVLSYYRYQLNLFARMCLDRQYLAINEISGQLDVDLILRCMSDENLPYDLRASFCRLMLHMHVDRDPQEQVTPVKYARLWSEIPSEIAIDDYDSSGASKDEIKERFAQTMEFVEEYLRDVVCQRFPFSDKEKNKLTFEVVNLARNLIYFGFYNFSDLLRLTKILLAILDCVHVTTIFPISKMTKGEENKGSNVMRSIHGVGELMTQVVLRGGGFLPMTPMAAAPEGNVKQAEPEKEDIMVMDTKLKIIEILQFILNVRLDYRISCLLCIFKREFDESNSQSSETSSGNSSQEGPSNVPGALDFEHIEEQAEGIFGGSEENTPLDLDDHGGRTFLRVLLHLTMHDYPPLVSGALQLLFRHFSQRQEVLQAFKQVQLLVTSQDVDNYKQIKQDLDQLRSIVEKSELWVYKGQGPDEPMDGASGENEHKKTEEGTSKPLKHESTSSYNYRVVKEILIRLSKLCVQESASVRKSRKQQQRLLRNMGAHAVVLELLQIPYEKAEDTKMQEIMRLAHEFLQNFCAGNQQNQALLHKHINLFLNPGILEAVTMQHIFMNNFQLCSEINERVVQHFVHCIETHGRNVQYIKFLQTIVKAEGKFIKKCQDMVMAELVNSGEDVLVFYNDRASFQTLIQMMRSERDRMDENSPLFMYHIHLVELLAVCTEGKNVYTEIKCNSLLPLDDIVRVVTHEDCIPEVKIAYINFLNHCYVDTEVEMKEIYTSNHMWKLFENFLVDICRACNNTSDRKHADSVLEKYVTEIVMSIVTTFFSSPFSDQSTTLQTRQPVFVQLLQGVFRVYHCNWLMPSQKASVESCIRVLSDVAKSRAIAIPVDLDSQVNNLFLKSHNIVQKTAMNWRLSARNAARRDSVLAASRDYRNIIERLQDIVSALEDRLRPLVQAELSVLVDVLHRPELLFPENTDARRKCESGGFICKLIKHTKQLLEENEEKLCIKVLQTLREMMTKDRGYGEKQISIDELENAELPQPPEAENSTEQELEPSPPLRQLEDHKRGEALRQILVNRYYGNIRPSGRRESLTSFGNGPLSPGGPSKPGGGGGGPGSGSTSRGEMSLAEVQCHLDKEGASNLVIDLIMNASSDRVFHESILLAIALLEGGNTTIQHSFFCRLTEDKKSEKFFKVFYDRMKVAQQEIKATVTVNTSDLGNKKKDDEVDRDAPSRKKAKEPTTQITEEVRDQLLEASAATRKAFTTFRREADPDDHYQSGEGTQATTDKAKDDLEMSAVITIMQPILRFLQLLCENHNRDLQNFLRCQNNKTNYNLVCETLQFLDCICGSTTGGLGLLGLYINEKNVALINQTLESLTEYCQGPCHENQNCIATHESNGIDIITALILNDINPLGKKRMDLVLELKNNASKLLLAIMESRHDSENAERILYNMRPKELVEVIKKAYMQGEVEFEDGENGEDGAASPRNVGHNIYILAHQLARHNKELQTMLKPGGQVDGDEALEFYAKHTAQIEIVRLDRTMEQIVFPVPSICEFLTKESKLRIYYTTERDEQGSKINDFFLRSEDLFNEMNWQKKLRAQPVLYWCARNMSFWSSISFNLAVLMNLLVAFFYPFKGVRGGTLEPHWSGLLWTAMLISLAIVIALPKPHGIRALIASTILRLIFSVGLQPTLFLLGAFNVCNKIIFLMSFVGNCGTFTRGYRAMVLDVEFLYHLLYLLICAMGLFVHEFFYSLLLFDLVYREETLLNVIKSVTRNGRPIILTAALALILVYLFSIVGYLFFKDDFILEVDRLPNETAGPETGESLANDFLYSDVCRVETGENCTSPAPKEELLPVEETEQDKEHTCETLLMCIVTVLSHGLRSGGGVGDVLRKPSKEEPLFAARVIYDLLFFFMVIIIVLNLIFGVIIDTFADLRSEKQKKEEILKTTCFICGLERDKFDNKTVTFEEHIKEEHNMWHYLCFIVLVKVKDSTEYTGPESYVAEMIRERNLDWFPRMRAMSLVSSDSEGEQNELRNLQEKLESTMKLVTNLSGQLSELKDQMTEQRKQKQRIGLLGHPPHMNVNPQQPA
Method: Glycosides of the present invention, depending on their chemical structure, inhibit the binding of inositol-1,4,5-trisphosphate (IP3) to its receptor in microsomal membrane preparations. As IP3 is a messenger molecule playing distinguished role in the activation of different cells, interfering with this function can explain the anti-asthmatic effect of these polysulfated glycosides.
The IP3 antagonist effect of the polysulfated glycosides were determined using rat cerebellum membrane preparations according to Worley et al. (JBC 262, 12132, 1987).

[1] = read-out: IC 50 (μg/ml) Average ± SEM (n) (converted)

Compound	IC50 (IP-3 receptor; read-out: Average IC50)	IC50 (IP-3 receptor; [1])	melting point
O=S(=O)(O)OC[C@H](OS(=O)(=O)O)[C@@H](OS(=O)(=O)O)[C@H](OS(=O)(=O)O)[C@@H](CO[C@@H]1O[C@H](COS(=O)(=O)O)[C@@H](OS(=O)(=O)O)[C@H](OS(=O)(=O)O)[C@H]1OS(=O)(=O)O)OS(=O)(=O)O [Example 2, 1,2,3,4,5-penta-O-sulfato-6-O-(2,3,4,6-tetra-O-sulfato-β-D-glucopyranosyl)-D-glucitol nona potassium salt]	1410 nM	1870 nM	–
CO[C@@H]([C@H](OC)[C@@H](COS(=O)(=O)O)OS(=O)(=O)O)[C@@H](CO[C@@H]1O[C@H](CO[C@@H]2O[C@H](COS(=O)(=O)O)[C@@H](OS(=O)(=O)O)[C@H](OS(=O)(=O)O)[C@H]2OS(=O)(=O)O)[C@@H](OS(=O)(=O)O)[C@H](OS(=O)(=O)O)[C@H]1OS(=O)(=O)O)OS(=O)(=O)O [Example 14, 3,4-di-O-methyl-2,5,6-tri-O-sulfato-1-O-(2,3,4,2′,3′,4′,6′-hepta-O-sulfato-β-gentiobiopyranosyl)-D-mannitol deca potassium salt]	6100 nM	7830 nM	–
O=S(=O)(O)OC[C@H](OS(=O)(=O)O)[C@@H](OS(=O)(=O)O)[C@H](O[C@@H]1O[C@H](COS(=O)(=O)O)[C@H](OS(=O)(=O)O)[C@H](OS(=O)(=O)O)[C@H]1OS(=O)(=O)O)[C@@H](COS(=O)(=O)O)OS(=O)(=O)O (as salt: potassium) [Example 7, 1,2,3,5,6-penta-O-sulfato-4-O-(2,3,4,6-tetra-O-sulfato-β-D-galactopyranosyl)-D-glucitol nona potassium salt]	–	–	> 220 °C
O=S(=O)(O)OC[C@H](OS(=O)(=O)O)[C@@H](OS(=O)(=O)O)[C@H](O[C@H]1O[C@H](COS(=O)(=O)O)[C@@H](OS(=O)(=O)O)[C@H](OS(=O)(=O)O)[C@H]1OS(=O)(=O)O)[C@@H](COS(=O)(=O)O)OS(=O)(=O)O [Example 5, 1,2,3,5,6-penta-O-sulfato-4-O-(2,3,4,6-tetra-O-sulfato-α-D-glucopyranosyl)-D-glucitol nona potassium salt]	263 nM	347 nM	–
O=S(=O)(O)OC[C@H](OS(=O)(=O)O)[C@@H](OS(=O)(=O)O)[C@H](O[C@H]1O[C@H](COS(=O)(=O)O)[C@@H](OS(=O)(=O)O)[C@H](OS(=O)(=O)O)[C@H]1OS(=O)(=O)O)[C@@H](COS(=O)(=O)O)OS(=O)(=O)O (as salt: potassium) [Example 5, 1,2,3,5,6-penta-O-sulfato-4-O-(2,3,4,6-tetra-O-sulfato-α-D-glucopyranosyl)-D-glucitol nona potassium salt]	–	–	> 220 °C
O=S(=O)(O)OCC(OS(=O)(=O)O)C(OC1OC(COS(=O)(=O)O)C(OS(=O)(=O)O)C(OS(=O)(=O)O)C1OS(=O)(=O)O)C(OS(=O)(=O)O)C(COS(=O)(=O)O)OS(=O)(=O)O (as salt: potassium) [Example 6, 1,2,3,5,6-penta-O-sulfato-4-O-(2,3,4,6-tetra-β-sulfato-β-D-glucopyranosyl)-D-glucitol nona potassium salt]	–	–	> 220 °C
O=S(=O)(O)OC[C@H]1O[C@@H](OC[C@H](OS(=O)(=O)O)[C@@H](O[C@@H]2O[C@H](COS(=O)(=O)O)[C@@H](OS(=O)(=O)O)[C@H](OS(=O)(=O)O)[C@H]2OS(=O)(=O)O)[C@H](OS(=O)(=O)O)[C@@H](COS(=O)(=O)O)OS(=O)(=O)O)[C@H](OS(=O)(=O)O)[C@@H](OS(=O)(=O)O)[C@@H]1OS(=O)(=O)O [Example 8, 2,4,5,6-tetra-O-sulfato-1,3-bis-O-(2,3,4,6-tetra-O-sulfato-β-D-glucopyranosyl)-D-glucitol dodeca potassium salt]	800 nM	1050 nM	–
O=S(=O)(O)OC[C@H]1O[C@@H](OC[C@@H](OS(=O)(=O)O)[C@@H](OS(=O)(=O)O)[C@H](OS(=O)(=O)O)[C@@H](COS(=O)(=O)O)OS(=O)(=O)O)[C@H](OS(=O)(=O)O)[C@@H](OS(=O)(=O)O)[C@@H]1OS(=O)(=O)O [Example 1, 2,3,4,5,6-penta-O-sulfato-1-O-(2,3,4,6-tetra-O-sulfato-β-D-glucopyranosyl)-D-mannitol nona potassium salt]	100 nM	131 nM	–
O=S(=O)(O)OC[C@H](OS(=O)(=O)O)[C@@H](OS(=O)(=O)O)[C@H](O[C@@H]1O[C@H](COS(=O)(=O)O)[C@H](OS(=O)(=O)O)[C@H](OS(=O)(=O)O)[C@H]1OS(=O)(=O)O)[C@@H](COS(=O)(=O)O)OS(=O)(=O)O [Example 7, 1,2,3,5,6-penta-O-sulfato-4-O-(2,3,4,6-tetra-O-sulfato-β-D-galactopyranosyl)-D-glucitol nona potassium salt]	256 nM	338 nM	–
O=S(=O)(O)OCC1OC(OCC2OC(OCC(OS(=O)(=O)O)C(OS(=O)(=O)O)C(OS(=O)(=O)O)C(COC3OC(COC4OC(COS(=O)(=O)O)C(OS(=O)(=O)O)C(OS(=O)(=O)O)C4OS(=O)(=O)O)C(OS(=O)(=O)O)C(OS(=O)(=O)O)C3OS(=O)(=O)O)OS(=O)(=O)O)C(OS(=O)(=O)O)C(OS(=O)(=O)O)C2OS(=O)(=O)O)C(OS(=O)(=O)O)C(OS(=O)(=O)O)C1OS(=O)(=O)O [Example 10, 2,3,4,5-tetra-O-sulfato-1,6-bis-O-(2,3,4,2′,3′,4′,6′-hepta-O-sulfato-β-gentiobiopyranosyl)-D-mannitol octadeca potassium salt]	284 nM	383 nM	–
O=S(=O)(O)OCC(OS(=O)(=O)O)C(OC1OC(COS(=O)(=O)O)C(OS(=O)(=O)O)C(OS(=O)(=O)O)C1OS(=O)(=O)O)C(OS(=O)(=O)O)C(COS(=O)(=O)O)OS(=O)(=O)O [Example 6, 1,2,3,5,6-penta-O-sulfato-4-O-(2,3,4,6-tetra-β-sulfato-β-D-glucopyranosyl)-D-glucitol nona potassium salt]	256 nM	338 nM	–
O=S(=O)(O)OC[C@H]1O[C@@H](OC[C@H](OS(=O)(=O)O)[C@@H](OS(=O)(=O)O)[C@H](OS(=O)(=O)O)[C@@H](COS(=O)(=O)O)OS(=O)(=O)O)[C@H](OS(=O)(=O)O)[C@@H](OS(=O)(=O)O)[C@@H]1OS(=O)(=O)O [Example 3, 2,3,4,5,6-penta-O-sulfato-1-O-(2,3,4,6-tetra-O-sulfato-β-D-glucopyranosyl)-D-glucitol nona potassium salt]	405 nM	535 nM	–
O=S(=O)(O)OC[C@H]1O[C@@H](OC[C@@H](OS(=O)(=O)O)[C@@H](OS(=O)(=O)O)[C@H](OS(=O)(=O)O)[C@@H](CO[C@@H]2O[C@H](COS(=O)(=O)O)[C@@H](OS(=O)(=O)O)[C@H](OS(=O)(=O)O)[C@H]2OS(=O)(=O)O)OS(=O)(=O)O)[C@H](OS(=O)(=O)O)[C@@H](OS(=O)(=O)O)[C@@H]1OS(=O)(=O)O [Example 9, 2,3,4,5-tetra-O-sulfato-1,6-bis-O-(2,3,4,6-tetra-O-sulfato-β-D-glucopyranosyl)-D-mannitol dodeca potassium salt]	634 nM	832 nM	–
O=S(=O)(O)OC[C@@H](OS(=O)(=O)O)[C@@H](OS(=O)(=O)O)[C@H](OS(=O)(=O)O)[C@@H](CO[C@H]1OC[C@@H](OS(=O)(=O)O)[C@@H](OS(=O)(=O)O)[C@@H]1OS(=O)(=O)O)OS(=O)(=O)O [Example 16, 2,3,4,5,6-penta-O-sulfato-1-O-(2,3,4-tri-O-sulfato-α-D-arabinopyranosyl)-D-mannitol octa potassium salt]	702 nM	2020 nM	–

— patent publication US8987216B2, “Polysulfated glycosides and salts thereof” (Teva Hungary Pharmaceutical Marketing Private Limited …, priority 2004, dated 2015)
